# From patent US9309286B2, “Compositions and methods for augmenting permeability barriers” (TUFTS MEDICAL CENTER, priority 2011, dated 2016)
# Peptide text beside a SMILES is read from it.
# Key:
# rats [1] = experiment: Evans Blue leak into lungs of rats after p38 inhibitor; conditions: 1 μmol/kg
# rats [2] = tested on: rats
Compound,Leak of intravenously injected Evans Blue into lungs (rats [1]),"Lung weight/body weight, peptide alone (rats [2])"
C[S+]([O-])c1ccc(-c2nc(-c3ccncc3)c(-c3ccc(F)cc3)[nH]2)cc1 (centres unmarked) [SB203580],increase in leak,–
C[C@H](NC(=O)[C@H](C)NC(=O)[C@@H]1CCCN1C(=O)[C@H](C)NC(=O)CNC(=O)[C@H](CCCNC(=N)N)NC(=O)[C@H](CCCNC(=N)N)NC(=O)[C@@H](NC(=O)CNC(=O)[C@@H]1CCCN1C(=O)[C@@H](NC(=O)[C@H](CCCNC(=N)N)NC(=O)[C@H](CCCNC(=N)N)NC(=O)[C@H](C)NC(=O)[C@@H]1CCCN1C(=O)[C@H](CC(N)=O)NC(=O)[C@H](CCCNC(=N)N)NC(=O)[C@@H]1CCCN1C(=O)[C@H](Cc1c[nH]cn1)NC(=O)[C@H](C)NC(=O)[C@H](CCCNC(=N)N)NC(=O)[C@H](C)NC(=O)[C@H](CCC(N)=O)NC(=O)[C@H](CCCNC(=N)N)NC(=O)[C@H](C)NC(=O)[C@H](C)NC(=O)[C@H](C)NC(=O)[C@H](CCCNC(=N)N)NC(=O)[C@H](C)NC(=O)[C@@H](N)Cc1ccc(O)cc1)[C@@H](C)O)[C@@H](C)O)C(N)=O [MK2-activating peptide] (H-YARAAARQARAHPRNPARRTPGTRRGAPAA-NH2),–,no significant effect
